Results taken from patent US20060003020A1, “Anti-metastatic ability of mibefradil and gadolinium” (THE REGENTS OF THE UNIVERSITY OF MICHIGAN, priority 2004, published 2006).

How the values were obtained:
HT1080 cells [1] = experiment: Phagokinetic track assay of HT1080 cell motility; format: cell-based; conditions: for ability of HT1080 cells to clear the surrounding surface / inhibitory effect on clearing of the surface: 22 hours; for ability of HT1080 cells to clear the surrounding surface: brightfield microscopy; for cell motility by swept area ratio (total swept area divided by cell area): dose response, HT1080 cells; for inhibitory effect on clearing of the surface: concentrations expected to block the relevant Ca^2+ channels
Experimental: HT1080 cells were incubated on gold particle-coated glass coverslips for 22 hours. […] A suspension of 5000 cells/ml was treated with or without Ca^2+ channel blockers then seeded onto the gold-coated coverslips. […] The tracks produced by the cells were viewed by brightfield microscopy with a 10× objective. Thirty randomly selected tracks were measured for each slide.
As cells migrated on these surfaces, the gold particles were cleared from regions of the surface and frequently picked up by the cells, making the cells appear darker and the surrounding area appear lighter when viewed by microscopy.
The size of HT1080 cells varies considerably. To evaluate cell motility, a swept area ratio was used, which calculates total swept area divided by cell area.

HT1080 cells [2] = experiment: Biocoat Matrigel invasion chamber assay of HT1080 cell invasion; format: cell-based; conditions: 22 hour incubation; for number of migrating cells: control cells approximately 80; for lowest dose that exhibits maximal inhibition of invasiveness: HT1080 cells; for HT1080 cell transmigration: dose response; for effect on cell invasiveness: pharmacologically appropriate doses
HT1080 cells [3] = experiment: Microfluorometry of Ca^2+ spikes/oscillations in indo-1 labeled HT1080 cells; conditions: concentration not given
HT1080 cells [4] = experiment: High speed microscopy of intracellular Ca^2+ waves in HT1080 cells; format: cell-based; conditions: high speed imaging
Experimental: Recent studies have shown that Ca^2+ spikes of polarized neutrophils and colorectal tumor cell transfectants are associated with certain intracellular Ca^2+ waves (Kindzelskii et al., J. Immunol. 170:64-72, 2003; Wang et al., J Immunol. 170:795-804, 2003). To visualize these waves, images must be collected using very short shutter speeds to avoid image blurring due to wave motion and indo-1 diffusion while the shutter is open. […]
High speed microscopy was performed using an Axiovert 135 fluorescene microscope with a quartz condenser, quartz objective, and an AttoArc mercury lamp (Zeiss). To detect fluorescence changes in the short wavelength emission region of indo-1, a 355HT15 exciter, a 390LP dichroic reflector, and a 405DF43 emission filter were used. […]
A region of high Ca concentration, seen in the microscope as a bright spot within the cell, was brought about by the local opening of Ca^2+ channels. As indo-1 has a relatively high affinity for Ca^2+ and a finite amount of time was required for the signaling apparatus to pump-down free cytosolic Ca^2+, a low intensity “tail” was observed next to the region of bright Ca^2+ indo-1 fluorescence (i.e., the Ca^2+ wave has a low intensity tail on the side opposite to the direction of wave motion).

HT1080 cells [5] = experiment: T-type channel expression and cell shape of mibefradil treated HT1080 cells
From the text: Thus, it was necessary to determine if blockade of T-type calcium channels on HT1080 cells caused morphological transformation.

Row | Compound | number of migrating cells (HT1080 cells [2]) | lowest dose that exhibits maximal inhibition of invasiveness (HT1080 cells [2]) [µM] | HT1080 cell transmigration (HT1080 cells [2]) | ability of HT1080 cells to clear the surrounding surface (HT1080 cells [1]; 1.5 μM) | cell motility by swept area ratio (total swept area divided by cell area) (HT1080 cells [1]) | propagating Ca^2+ wave after addition (HT1080 cells [4]) | effect on cell invasiveness (HT1080 cells [2]) | inhibitory effect on clearing of the surface (HT1080 cells [1]) | other results
1 | NC(=O)c1nnn(Cc2cc(Cl)c(C(=O)c3ccc(Cl)cc3)c(Cl)c2)c1N [CAI, Carboxyamidotriazole] | – | – | – | – | – | – | – | – | ability of HT1080 cells to clear the surrounding surface (HT1080 cells [1]; 10 μM): significantly decreased
2 | [Gd+3] [Gd^3+, gadolinium (Gd^3+)] | approximately 22 | 20 | inhibited HT1080 cell transmigration in a dose-dependent fashion | significantly decreased | significantly inhibited cell motility in a dose-dependent manner | a Ca^2+ wave was observed in cells before, but not after addition | – | – | effect on Ca^2+ spikes (HT1080 cells [3]): Ca^2+ spikes diminished then disappeared; HT1080 movement (HT1080 cells [1]; Six μM): almost completely abolished
3 | COc1ccc(CCCOC(Cn2ccnc2)c2ccc(OC)cc2)cc1 (stereo not shown) [SKF96365] | – | – | – | – | – | – | no effect | no inhibitory effect was observed | –
4 | COc1ccc([C@@H]2Sc3ccccc3N(CCN(C)C)C(=O)[C@@H]2OC(C)=O)cc1 [diltiazem] | – | – | – | – | – | – | no effect | no inhibitory effect was observed | –
5 | COCC(=O)O[C@]1(CCN(C)CCCc2nc3ccccc3[nH]2)CCc2cc(F)ccc2[C@@H]1C(C)C [mibefradil] | approximately 25 | 5 | inhibited HT1080 cell transmigration in a dose-dependent fashion | significantly decreased | significantly inhibited cell motility in a dose-dependent manner | no propagating Ca^2+ wave was found | – | – | cell shape / morphological transformation (HT1080 cells [5]): maintain their rounded shape; decrease of cell-swept area compared with control treated cells (HT1080 cells [1]; 5 μM): approximately 90%
6 | COC(=O)C1=C(C)NC(C)=C(C(=O)OCCN(C)Cc2ccccc2)C1c1cccc([N+](=O)[O-])c1 (stereo not shown) [nicardipine] | – | – | – | – | – | – | no effect | – | –
